Laboratory results reported in US9850308B2, “Neutralization of CD95 activity blocks invasion of glioblastoma cells in vivo” (Deutsches Krebsforschungszentrum Stiftung des oeffentlichen …, priority 2006, dated 2017).
Entries after “also recorded” stand apart in the source; their conditions may differ. Residues, ends and D or L forms follow the SMILES beside them. *: point of attachment. Cbz = O=C(OCc1ccccc1)*; CH2F = FC*

Key:
T98G cells = assay: Migration assay (collagen-coated transwell / two dimensional migration assay); format: cell-based, human; settings: T98G cells stimulated with α-Apo-1 (2 μg/ml) or LZ-CD95L (5 ng/ml)
Experimental: Migration of the glioma cells in vitro was measured by the migration through Collagen 1-coated (Chemicon) transwell inserts (Falcon). 5×10^4 cells were plated in 200 μl medium onto collagen-coated (50 μg/ml) transwell inserts with 8 μm pore size. Cells were either γ-irradiated before plating or treated after plating with α-Apo1 (2 μg/ml or 0.1 μg/ml+ProteinA for cross linking), LZ-CD95L (5 ng/ml), Nok1 (50 ng)/LZ-CD95L (5 ng/ml), Nok1 (50 ng) LZ-Supernatant (SN, 5 ng/ml), CD95L (10 ng/ml) and CD95L-T34. Preferably 24 h after plating the cells were starved with basal DMEM for additional 24 h before they were treated. The number of completely migrated cells was counted at 12 h, 24 h and 36 h after treatment. In every experiment triplicates were counted for each treatment.
2.5×10^5 cells were plated onto 6 cm culture dishes 12 h prior to irradiation. […]
Knockdown experiments were performed by transient transfection with Lipofectamine 2000™ (Invitrogen Life Technologies) following the instruction manual. […] After transient transfection with the different siRNAs cells were cultured for 72 h before treated with CD95LT4 (10 ng/ml and 20 ng/ml), migration was analyzed 24 h after treatment with a two dimensional migration assay. The knockdown was controlled by quantitative real-time PCR and FACS. […] Migration was measured 24 h after treatment in a two dimensional migration assay.

GSK3β = assay: Phosphorylation (inhibition) of GSK3β, Western Blot; format: cell-based, human; settings: T98G cells, pre-treatment before CD95 stimulation
Experimental: The MAPK inhibitor, PD98059 (25 μM), the PI3K inhibitor […] (25 μM) and the pancaspase inhibitor zVAD-fmk (40 μM) were purchased from Calbiochem. The ILK inhibitor (20 μM) was kindly provided from S. Dedhar. Cells were preincubated with inhibitors 30 minutes (LY 290059 and zVAD-fmk) prior to treatment with either CD95L-T4 or αApo-1. Generation of Leucinezipper-CD95L (LZCD95L) was performed as previously described^41. The blocking agents (zVAD-fmk, PD98059, LY 290059 and KP-SD1) were given 30 minutes before treatment with LZ-CD95L or αApo-1. Cells were lysed for further biochemical analysis. Protein extraction and immunoblotting was performed as previously described^41.

[1] = tested on: Jurkat A3 permanent human T-cell line; assay: Jurkat apoptosis assay (Caspase 3/7 activity); format: cell-based; settings: Jurkat cells, 250 ng/ml CD95L-T4, 30 min preincubation

With `COc1cccc(-c2cc(=O)c3ccccc3o2)c1N` [PD98059] the “blockade of CD95-induced migration” value (T98G cells) was “did not interfere with CD95-induced migration” and the “blockade of CD95-induced migration” value (T98G cells; listed as PD 98059) was “did not interfere with the CD95-induced migration”.

For `COC(=O)C[C@H](NC(=O)[C@H](C)NC(=O)[C@@H](NC(=O)OCc1ccccc1)C(C)C)C(=O)CF` [zVAD-fmk] (Cbz-Val-Ala-Asp(OMe)-CH2F), the “blockade of CD95-induced GSK3β phosphorylation/inhibition” value (GSK3β) was “did not prevent GSK3β phosphorylation; also recorded: did not interfere with α-Apo-1 (2 μg/ml)-induced inhibition of GSK3β” and the “blockade of CD95-induced GSK3β phosphorylation/inhibition” value (GSK3β; listed as zVAD.fmk) was “did not block ser9 phosphorylation of GSK3β”.

In the case of “APG101: fusion protein of the extracellular domain of the human CD95-receptor with human Fc, SEQ ID NO:1”, the “antagonism of CD95L-T4-induced apoptosis” value [1] is reported as “antagonizes the apoptosis inducing effect of CD95L; also recorded: antagonized by APG101 in a dose dependent manner” and the “antagonism of CD95L-T4-induced apoptosis” value ([1]; listed as AP-G101) is reported as “antagonizes the apoptosis inducing activity of CD95L-T4”.
